Test results reported in article PMC7460544, “Prenylated Flavonoids from the Roots of Tephrosia rhodesica” (Journal of Natural Products, 2020).

Assays:
HEK 293 mammalian cells = experiment: cytotoxicity against HEK 293 mammalian cells (LD50); format: cell-based; settings: single experiment
[1] = system: chloroquine-sensitive (3D7) strain of Plasmodium falciparum; experiment: asexual P. falciparum imaging growth inhibition assay (antiplasmodial activity); format: cell-based; settings: for antiplasmodial activity in words: P. falciparum 3D7

Compound	LD50 (HEK-293), given as % at 40 μM (HEK 293 mammalian cells) [% at 40 μM]	antiplasmodial activity in words [1]	LD50 (HEK-293) (HEK 293 mammalian cells) [µM]	IC50 ([1]; Plasmodium falciparum, 3D7, read-out: IC50, μM (Pf3D7)) [µM]
COc1cc(OC)c2c(c1CC=C(C)C)O[C@H](c1ccccc1)C[C@H]2OC [Quercetol B (9), quercetol B]	87	moderate activities	–	–
CC(C)=CCC1(CC=C(C)C)C(=O)C(=O)C2=C1O[C@H](c1ccccc1)C[C@H]2O (relative stereo) [Rhodiflavan C (4), (2S*,4R*)-4-hydroxy-7,7-bis(3-methylbut-2-en-1-yl)-2-phenyl-2,3,4,7-tetrahydrocyclopenta[b]pyran-5,6-dione]	101	moderate activities	–	–
C=C(C)[C@H]1Cc2c(ccc3c2O[C@@H]2C(O)Oc4cc(OC)c(OC)cc4[C@@H]2C3=O)O1 (stereo partly drawn) [6-Hydroxyrotenone (15), 6-hydroxyrotenone]	–	moderate activities	10.9	–
CC(C)=CCC1(CC=C(C)C)C(=O)[C@](O)(CC=C(C)C)C(=O)C2=C1O[C@H](c1ccccc1)C[C@H]2O [Rhodiflavan B (3), 4,6-dihydroxy-6,8,8-tris(3-methylbut-2-en-1-yl)-2-phenyl-2,3,4,8-tetrahydro-5H-chromene-5,7(6H)-dione]	34	moderate activities	–	–
CC(C)=CCC1(CC=C(C)C)C(=O)[C@@](O)(CC=C(C)C)C(=O)C2=C1O[C@H](c1ccccc1)C[C@H]2O [Rhodiflavan A (2), 4,6-dihydroxy-6,8,8-tris(3-methylbut-2-en-1-yl)-2-phenyl-2,3,4,8-tetrahydro-5H-chromene-5,7(6H)-dione]	–	moderate activities	–	–
CCN(CC)CCCC(C)Nc1ccnc2cc(Cl)ccc12 (stereo not drawn) [Chloroquine, reference compound]	–	–	–	0.0047
CC(C)=CCc1cc2c(cc1O)OC[C@@]1(O)c3cc4c(cc3O[C@@H]21)OCO4 [Rhodacarpin (5), (6aS,12aS)-2-(3-methylbut-2-en-1-yl)-6H-[1,3]dioxolo[4′,5′:5,6]benzofuro[3,2-c]chromene-3,6a(12aH)-diol]	27	moderate activities	–	–
